# Results published in patent publication US20130315920A1, “Cross Protective Epitopes of Aspergillus Fumigatus and Candida Albicans” (Cell Medica Limited, priority 2010, published 2013).
# Columns and labels:
# [1] = system: A. fumigatus cell extract; experiment: Peptide-specific T-cell clones stimulated with DC incubated with A. fumigatus cell extract (IFN-γ); format: cell-based, Aspergillus fumigatus; conditions: extract 20 μg/ml, DC incubated 24 h
# Experimental: (§1) T-cell cloning was performed as described in below. T-cell clones were stimulated either with mature peptide-pulsed (2.5 μg/ml) or Crf1 mRNA-transfected DC, immature DC incubated for 24 h with A. fumigatus cell extract (20 μg/ml) in the presence of cytokine maturation cocktail or immature DC incubated for 24 h with inactivated A. fumigatus or C. albicans fungus (multiplicity of infection 3) in a R:S ratio of 5:1.
# Fungal extracts were generated as described^48 and protein content was measured by Bradford protein assay (Perbio Science) according to the manufacturers' instructions. For inactivated fungus Aspergillus conidia were inoculated in growth medium^49 and cultured for 0, 4, 8 or 12 h. Candida species were cultured for 24 h. Fungi were inactivated with 70% ethanol. Ethanol-inactivated fungi and extracts were validated for sterility by subculturing on Sabouraud dextrose agar.
# [2] = system: DC transfected with Crf1 mRNA; experiment: Peptide-specific T-cell clones stimulated with Crf1 mRNA-transfected DC (IFN-γ); format: cell-based, human
# Experimental: as §1
# For T-cell cloning 6×10^7 PBMC were stimulated overnight with 5 μg/ml peptide and 1 μg/ml CD40 antibody (HB14, Miltenyi Biotec). Cells were labelled with anti-CD154^+ microbeads and isolated by magnetic cell separation according to the manufacturers' instructions (Miltenyi Biotec). Selected cells were cultured with γ-irradiated autologous PBMC (ratio 1:50) and cytokines were supplemented as described above. On d14, T-cell clones were generated by limiting dilution in 96-well plates and expanded using the rapid expansion protocol previously described^50.
# A. fumigatus Crf1 cDNA was cloned into the pGEM4Z vector (provided by Kris Thielemans) and in vitro transcribed using mMESSAGE mMACHINE T Ultra Kit (Ambion) according to the manufacturers' instructions. Crf1 was fused to the N-terminal domain of the invariant chain to enhance antigen presentation by MHC class II^51,52. Maturated DC were electroporated with 15 μg mRNA at 300V and 150 μF using the EQUIBIO EasyjecT Plus® apparatus (EQUIBIO) in serum-free medium (OptiMEM, Gibco)^41.
# inactivated A. fumigatus = experiment: Peptide-specific T-cell clones stimulated with DC incubated with inactivated A. fumigatus (resting conidia, germinating conidia, hyphae); format: cell-based, Aspergillus fumigatus
# Description: Response of Crf1 peptide-specific T-cell clones to stimulation with native A. fumigatus antigen. (a) T-cell clones from different donors specific for p1, p22, p27, p41 and p59 that responded to stimulation with Crf1 mRNA-transfected DC were stimulated with A. fumigatus cell extract or (b) inactivated germinating A. fumigatus conidia. IFN-γ values are given after subtraction of the negative control. Shown is 1 clone per antigen and donor (representative experiments, n≧3). (c) Crf1 p41-specific T-cell clones respond to stimulation with DC incubated overnight with germinating A. fumigatus conidia or hyphae but not to resting conidia. T cell clones were stimulated with A. fumigatus inactivated 0 h (resting conidia), 6 h (germinating conidia) or 12 h (hyphae) after incubation in growth medium.
# as §1
# Fungal extracts were generated as described^48 and protein content was measured by Bradford protein assay (Perbio Science) according to the manufacturers' instructions. […]
# PBMC = experiment: In vitro expansion of Crf1 p41-specific T-cell lines from PBMC; format: cell-based, human
# Experimental: Cross-reactive Crf1 p41-specific T-cells show a diverse T-cell receptor (TCR) Vβ repertoire, multiple MHC class II restriction and high proliferative capacity. (a) The TCR Vβ repertoire of p41-specific CD4^+ T-cell clones is divers in different donors. TCR chains were determined by flowcytometry, PCR and/or nucleotide sequence analysis. *TCRs differ on the level of nucleotide sequence. Nomenclature is according to Wei et al^53. (b) The Crf1 p41 epitope can be presented by HLA-DRB1*03, 04 and 13 and allows cross-recognition between HLA-DRB1*03 and 13. The HLA restriction of Crf1 p41-specific T-cell clones from 5 different donors was determined by stimulation with peptide-pulsed unmatched or partially matched LCL. IFN-γ values are given after subtraction of the negative control. (c) Crf1 p41-specific T-cells are not terminally differentiated and can be rapidly expanded in vitro. […] T-cells were restimulated with autologous peptide-pulsed monocytes on day 7 and culture medium was supplemented with IL-2, IL-7 and IL-15 (representative experiments, n≧3).
# For T-cell expansion, 1×10^7 PBMC were stimulated with 5 μg/ml peptide in the presence of 5 U/ml IL-2. On d7, T-cells were restimulated with autologous peptide-pulsed monocytes at a R:S ratio of 5:1 and 10 ng/ml IL-7 and IL-15 (R&D systems) were supplemented every other day until d14.
# The TCR Vβ repertoire was analyzed flowcytometrically (IOTest Beta Mark Kit, Beckman Coulter), by PCR^43 and sequence analysis^44. A PE-conjugated Crf1 p41-specific HLA-DRB1*0401 MHC class II tetramer was used according to the manufacturers' instructions (Beckman Coulter).
# HLA-DRB1*03 = experiment: HLA restriction with peptide-pulsed partially matched LCL (IFN-γ ELISA); format: cell-based, human; conditions: 10^−3 to 1 ug/ml peptide
# Experimental: (§2) To evaluate the utility of the Crf1 p41 epitope for potential clinical application, we defined the HLA restriction of Crf1 p41-specific CD4^+ T clones from different donors by stimulation with peptide-pulsed partially matched LCLs. […] As presentation of the Crf1 p41 peptide could also be mediated by other MHC class II alleles, we verified the HLA restriction by stimulation of PBMC from additional donors.
# (§3) HLA restriction was analyzed with partially matched allogeneic EBV-lymphoblastoid cell lines (LCL) (provided by Patricia Comoli and Inge Jedema) pulsed with 10^−3 to 1 ug/ml peptide using IFN-γ ELISA.
# HLA-DRB1*13 = experiment: as above; format: cell-based, human; conditions: for Presentation / binding by HLA-DRB1*13: 10^−3 to 1 ug/ml peptide
# Experimental: as §2, §3
# HLA-DRB1*04 = experiment: as above; format: cell-based, human; conditions: 10^−3 to 1 ug/ml peptide
# Experimental: as §2, §3
# [3] = system: A. flavus, A. nidulans, A. niger, A. terreus, C. glabrata and C. krusei; experiment: Cross-reactivity of T-cell clones to other Aspergillus and Candida species; format: cell-based; conditions: data not shown
# Description: We then analyzed if our T-cell clones might cross-react to other clinically relevant Aspergillus and Candida species such as A. flavus, A. nidulans, A. niger, A. terreus, C. glabrata and C. krusei because they also express proteins with some sequence similarity to A. fumigatus Crf1. […] Thus, p41-specific TH1 cells represent a core repertoire in antifungal immune responses being reactive to A. fumigatus but also to C. albicans, the second most important pathogenic fungus in HSCT patients.
# Fungal strains A. fumigatus D141, A. nidulans FGSCA4, C. albicans SC5314 and clinical isolates A. fumigatus, A. terreus, A. flavus, A. niger, C. albicans, C. glabrata and C. krusei were provided by Sven Krappmann, Joachim Morschhäuser and Reno Frei.
sequence,measurement,setting,value
"HTYTIDWTKDAVTWS (Peptide found in the Crf1 protein of Aspergillus fumigatus) [p41, Crf1 aa 161-175]",Response of peptide-specific T-cell clones to A. fumigatus extract,[1],All Crf1 p41-specific T-cell clones of all 5 donors
same,Response of peptide-specific CD4+ T-cell clones to endogenously processed antigen,[2]; all donors,All generated p41-specific CD4^+ T-cell clones were activated readily
same,Number of T-cell clones reacting to Crf1 mRNA-transfected DC/number of peptide-specific T-cell clones,[2]; donor 1,11/11
same,Number of T-cell clones reacting to Crf1 mRNA-transfected DC/number of peptide-specific T-cell clones,[2]; donor 2,16/16
same,Number of T-cell clones reacting to Crf1 mRNA-transfected DC/number of peptide-specific T-cell clones,[2]; donor 4,2/2
same,Number of T-cell clones reacting to Crf1 mRNA-transfected DC/number of peptide-specific T-cell clones,[2]; donor 7,4/4
same,Number of T-cell clones reacting to Crf1 mRNA-transfected DC/number of peptide-specific T-cell clones,[2]; donor 10,3/3
same,Activation of peptide-specific T-cell clones by resting conidia,inactivated A. fumigatus; A. fumigatus inactivated 0 h (resting conidia),resting conidia were not able to activate peptide-specific T-cell clones
same,Activation of peptide-specific T-cell clones by germinating conidia and hyphae,inactivated A. fumigatus; A. fumigatus inactivated 6 h (germinating conidia) or 12 h (hyphae),germinating conidia induced similar T-cell responses as outgrown hyphae
same,Frequency of antigen-specific cells by HLA-DRB1*04 restricted tetramer (median),PBMC; after 14 days expansion,50.6%
same,Frequency of antigen-specific cells by HLA-DRB1*04 restricted tetramer (range),PBMC; after 14 days expansion,42-63%
same,Cell number after expansion (median),PBMC; from 10^7 PBMC within 14 days,3.5×10^7 cells
same,Cell number after expansion (range),PBMC; from 10^7 PBMC within 14 days,3−4.9×10^7 cells
same,Cytokine production and proliferation of expanded T-cell lines,PBMC; upon antigen stimulation,produced high amounts of TH1 cytokines and proliferated upon antigen stimulation
same,Presentation / binding by HLA-DRB1*03,HLA-DRB1*03,"presentation of the Crf1 p41 is mediated by HLA-DRB1*03, 04 and 13"
same,Presentation / binding by HLA-DRB1*03,HLA-DRB1*03; listed as HTYTIDWTKDAVTWS,"has been shown to bind to HLA-DRB1*03, HLA-DRB1*13 and HLA-DRB1*04"
same,Cross-recognition between HLA-DRB1*03 and 13,HLA-DRB1*13,in some instances DRB1*03-restricted TCRs might be able to recognize p41 peptide presented by DRB1*13 and vice versa
same,Presentation / binding by HLA-DRB1*13,HLA-DRB1*13,"presentation of the Crf1 p41 is mediated by HLA-DRB1*03, 04 and 13"
same,Presentation / binding by HLA-DRB1*13,HLA-DRB1*13; listed as HTYTIDWTKDAVTWS,"has been shown to bind to HLA-DRB1*03, HLA-DRB1*13 and HLA-DRB1*04"
same,Presentation / binding by HLA-DRB1*04,HLA-DRB1*04,"presentation of the Crf1 p41 is mediated by HLA-DRB1*03, 04 and 13"
same,Presentation / binding by HLA-DRB1*04,HLA-DRB1*04; listed as HTYTIDWTKDAVTWS,"has been shown to bind to HLA-DRB1*03, HLA-DRB1*13 and HLA-DRB1*04"
same,Cross-reactivity to other Aspergillus and Candida species,[3],"none of the Crf1 p27-, p41- and p59-specific T-cell clones showed any cross-reactivity to these fungi"
